Source: ChEMBL document CHEMBL4402511, “Development of covalent antagonists for β1- and β2-adrenergic receptors” (Bioorg Med Chem, 2019)

Columns and labels:
Mus musculus [1] = species on record: Mus musculus; test: Covalent binding affinity to mouse beta1 adrenoceptor I2.64C mutant expressed in HEK293T cell membranes assessed as covalent blockage of binding site at 1 uM measured after 120 mins by [3H]CGP12177 binding based radioligand depletion assay relative to control
Homo sapiens [2] = species on record: Homo sapiens; test: Covalent binding affinity to human beta2 adrenoceptor H2.64C mutant expressed in HEK293T cell membranes assessed as covalent blockage of binding site at 1 uM measured after 120 mins by [3H]CGP12177 binding based radioligand depletion assay relative to control
[3] = target: Beta-2 adrenergic receptor (Homo sapiens, UniProt P07550); test: Displacement of [3H]CGP12177 from human beta2 adrenoceptor expressed in CHO cell membranes
Chain of Beta-2 adrenergic receptor (P07550 whole entry): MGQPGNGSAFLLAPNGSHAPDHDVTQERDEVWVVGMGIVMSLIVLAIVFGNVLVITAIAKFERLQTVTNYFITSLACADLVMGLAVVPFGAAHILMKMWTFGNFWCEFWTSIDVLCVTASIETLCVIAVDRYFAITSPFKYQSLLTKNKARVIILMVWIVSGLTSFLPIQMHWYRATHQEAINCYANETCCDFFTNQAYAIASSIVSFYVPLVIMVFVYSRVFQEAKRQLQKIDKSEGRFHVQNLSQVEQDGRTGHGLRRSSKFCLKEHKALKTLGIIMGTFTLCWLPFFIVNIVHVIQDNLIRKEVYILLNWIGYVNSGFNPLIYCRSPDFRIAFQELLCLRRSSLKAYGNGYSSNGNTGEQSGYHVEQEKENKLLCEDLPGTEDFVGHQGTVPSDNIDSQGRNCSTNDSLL

[4] = Selectivity index, ratio of Ki for displacement of [3H]CGP12177 from human beta2 adrenoceptor expressed in CHO cell membranes to Ki for displacement of [3H]CGP12177 from mouse beta1 adrenoceptor expressed in HEK293T cell membranes
Mus musculus [5] = species on record: Mus musculus; test: (§1) Displacement of [3H]CGP12177 from mouse beta1 adrenoceptor I2.64C mutant expressed in HEK293T cell membranes
Homo sapiens [6] = species on record: Homo sapiens; test: (§2) Displacement of [3H]CGP12177 from human beta2 adrenoceptor H2.64C mutant expressed in HEK293T cell membranes
[7] = target: Beta-1 adrenergic receptor (Mus musculus, UniProt P34971); test: Displacement of [3H]CGP12177 from mouse beta1 adrenoceptor expressed in HEK293T cell membranes
Chain of Beta-1 adrenergic receptor (P34971 whole entry): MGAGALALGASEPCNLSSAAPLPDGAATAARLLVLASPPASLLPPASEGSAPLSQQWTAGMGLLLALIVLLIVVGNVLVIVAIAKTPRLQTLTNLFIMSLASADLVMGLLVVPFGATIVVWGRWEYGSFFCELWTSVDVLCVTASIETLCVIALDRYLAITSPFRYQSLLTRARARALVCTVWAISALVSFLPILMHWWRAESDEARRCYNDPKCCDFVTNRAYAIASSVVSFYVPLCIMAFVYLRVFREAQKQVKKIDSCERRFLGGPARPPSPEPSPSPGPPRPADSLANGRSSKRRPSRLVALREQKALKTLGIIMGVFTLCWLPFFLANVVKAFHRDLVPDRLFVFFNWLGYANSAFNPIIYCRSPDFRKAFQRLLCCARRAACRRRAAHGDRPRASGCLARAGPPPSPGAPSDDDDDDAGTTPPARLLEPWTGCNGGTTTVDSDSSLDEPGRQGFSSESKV

[8] = as §2
Homo sapiens [9] = species on record: Homo sapiens; test: Covalent binding affinity to human beta2 adrenoceptor H2.64C mutant expressed in HEK293T cell membranes assessed as covalent blockage of binding site at 80 nM measured after 30 mins by [3H]CGP12177 binding based radioligand depletion assay relative to control
Homo sapiens [10] = species on record: Homo sapiens; test: Covalent binding affinity to human beta2 adrenoceptor H2.64C mutant expressed in HEK293T cell membranes assessed as covalent blockage of binding site at 5 nM measured after 30 mins by [3H]CGP12177 binding based radioligand depletion assay relative to control
Homo sapiens [11] = species on record: Homo sapiens; test: Covalent binding affinity to human beta2 adrenoceptor H2.64C mutant expressed in HEK293T cell membranes assessed as covalent blockage of binding site at 5 nM measured within 15 mins by [3H]CGP12177 binding based radioligand depletion assay relative to control
Homo sapiens [12] = species on record: Homo sapiens; test: Covalent binding affinity to human beta2 adrenoceptor H2.64C mutant expressed in HEK293T cell membranes assessed as covalent blockage of binding site measured after 15 mins by [3H]CGP12177 binding based radioligand depletion assay relative to control
Mus musculus [13] = species on record: Mus musculus; test: Covalent binding affinity to mouse beta1 adrenoceptor I2.64C mutant expressed in HEK293T cell membranes assessed as covalent blockage of binding site at 50 nM measured after 120 mins by [3H]CGP12177 binding based radioligand depletion assay relative to control
Homo sapiens [14] = species on record: Homo sapiens; test: Covalent binding affinity to human beta2 adrenoceptor H2.64C mutant expressed in HEK293T cell membranes assessed as covalent blockage of binding site at 50 nM measured after 15 mins by [3H]CGP12177 binding based radioligand depletion assay relative to control
Homo sapiens [15] = species on record: Homo sapiens; test: Covalent binding affinity to human beta2 adrenoceptor H2.64C mutant expressed in HEK293T cell membranes assessed as covalent blockage of binding site at 50 nM measured after 90 mins by [3H]CGP12177 binding based radioligand depletion assay relative to control
[16] = as §1
Homo sapiens [17] = species on record: Homo sapiens; test: Covalent binding affinity to human beta2 adrenoceptor H2.64C mutant expressed in HEK293T cell membranes assessed as covalent blockage of binding site at 50 nM measured after 120 mins by [3H]CGP12177 binding based radioligand depletion assay relative to control
Homo sapiens [18] = species on record: Homo sapiens; test: Covalent binding affinity to human beta2 adrenoceptor H2.64C mutant expressed in HEK293T cell membranes assessed as covalent blockage of binding site at 50 nM measured after 30 mins by [3H]CGP12177 binding based radioligand depletion assay relative to control
Homo sapiens [19] = species on record: Homo sapiens; test: Covalent binding affinity to human beta2 adrenoceptor H2.64C mutant expressed in HEK293T cell membranes assessed as covalent blockage of binding site at 1 nM measured after 15 mins by [3H]CGP12177 binding based radioligand depletion assay relative to control
Homo sapiens [20] = species on record: Homo sapiens; test: Covalent binding affinity to human beta2 adrenoceptor H2.64C mutant expressed in HEK293T cell membranes assessed as covalent blockage of binding site at 1 nM measured after 90 mins by [3H]CGP12177 binding based radioligand depletion assay relative to control

SMILES	Ki [3] [nM]	Ratio Ki [4]	Ki [7] [nM]	Ki [8] [nM]	also measured
Cn1cc(C(F)(F)F)nc1-c1ccc(OC[C@@H](O)CNCCOc2ccc(OCCSSCCN)c(C(N)=O)c2)cc1	2000	41	49	–	Activity (Mus musculus [1]): 74%; Activity (Homo sapiens [2]): 79%; KiH (Mus musculus [5]): 0.071 nM; KiL (Mus musculus [5]): 270 nM; KiH (Homo sapiens [6]): 36 nM; KiL (Homo sapiens [6]): 8.4 µM
CC(C)NCC(O)COc1ccc(COCCOC(C)C)cc1 (racemic) [BISOPROLOL]	–	–	5.3	–	–
COCCc1ccc(OC[C@H](O)CNCCc2ccc(OCCSSCCN)c(OC)c2)cc1	1300	1.8	740	66	–
COCCc1ccc(OC[C@@H](O)CNCCc2ccc(OCCSSCCN)c(OC)c2)cc1	57	2.1	27	3.8	Activity (Homo sapiens [9]): 100%
COc1cc(CCNC[C@@H](O)COc2cccc3ccccc23)ccc1OCCSSCCN	3.4	0.12	29	0.75	–
COc1cc(CCNC[C@H](O)COc2cccc3ccccc23)ccc1OCCSSCCN	0.16	0.33	0.49	0.083	Activity (Homo sapiens [10]): 100%; Activity (Homo sapiens [11]): 77 to 92%
COCCc1ccc(OC[C@H](O)CNCCc2ccc(OCCCSSCCN)c(OC)c2)cc1	320	1.5	220	26	–
COc1cc(CCNC[C@H](O)COc2cccc3ccccc23)ccc1OCCCSSCCN	0.073	0.066	1.1	0.18	Activity (Homo sapiens [10]): 100%; Activity (Homo sapiens [11]): 77 to 92%
COc1cc(CCNC[C@H](O)c2ccc(O)c(O)c2)ccc1OCCSSCCN	–	–	–	–	Activity (Homo sapiens [12]): 71%
COc1cc(CCNC[C@H](O)COc2ccc(COCCOC(C)C)cc2)ccc1OCCSSCCN	51	20	2.6	0.26	Activity (Mus musculus [13]): 64 to 76%; Activity (Homo sapiens [14]): 84 to 92%; Activity (Homo sapiens [15]): < 100%; Ki [16]: 2 nM
COCCc1ccc(OCC(O)CNC(C)C)cc1 (racemic) [METOPROLOL]	–	–	49	–	–
COCCc1ccc(OC[C@@H](O)CNCCc2ccc(OCCCSSCCN)c(OC)c2)cc1	20	0.91	22	1.5	Activity (Homo sapiens [17]): 100%; Activity (Homo sapiens [18]): 100%
Cn1cc(C(F)(F)F)nc1-c1ccc(OCC(O)CNCCOc2ccc(O)c(C(N)=O)c2)cc1 (centres undefined) [CGP-20712A]	–	–	1.4	–	–
COc1cc(CCNC[C@@H](O)COc2cccc3ccccc23)ccc1OCCCSSCCN	1.1	0.033	33	1.2	–
COc1cc(CCNC[C@H](O)COc2ccc(-c3nc(C(F)(F)F)cn3C)cc2)ccc1OCCSSCCN	2200	15	150	–	Activity (Mus musculus [13]): 64 to 76%; Activity (Homo sapiens [19]): 84 to 92%; Activity (Homo sapiens [20]): < 100%; KiH (Mus musculus [5]): 0.56 nM; KiL (Mus musculus [5]): 280 nM; KiH (Homo sapiens [6]): 3.6 nM; KiL (Homo sapiens [6]): 2.5 µM
Cn1cc(C(F)(F)F)nc1-c1ccc(OC[C@@H](O)CNCCOc2ccc(OCCCSSCCN)c(C(N)=O)c2)cc1	1400	20	71	–	Activity (Mus musculus [1]): 53 to 67%; Activity (Homo sapiens [2]): 53 to 67%; KiH (Mus musculus [5]): 3.1 nM; KiL (Mus musculus [5]): 480 nM; KiH (Homo sapiens [6]): 77 nM; KiL (Homo sapiens [6]): 3.6 µM
